Experimental data as given in US9709486B2, “Method of dynamic spectroscopy under physiological conditions” (INOVIEM SCIENTIFIC, priority 2012, dated 2017).

Experiments:
[1] = test system: crude membrane proteins from each patient's PBMC; assay: Dynamic NIR spectroscopy of crude PBMC membrane proteins of IBD patients in absence and presence of infliximab; parameters: species or system human; conditions: infliximab 10e-6M, samples of patients responding to infliximab, 850-1450 nm, FIG. 17
Method: All the patients have a treatment: infliximab (Remicad®). infliximab is an anti-TNFalpha. 50 patients (women=16, men=34) with an average age of 43±8 year seeking medical assistance at Erlangen hospital day-care unit are taking part to the study. Patient's whole blood is collected using sodium citrate vacutainer tubes (5-10 ml/patient). Samples are blinded.
Peripheral blood mononuclear cells (PBMCs) are separated and isolated on ficoll gradient from blood samples, and then frozen. Crude PBMC membranes are prepared in physiological conditions without addition of any protease inhibitor or anti-phosphatase or lyses buffer. PBMC samples were subjected to three fast deep freezing (liquid nitrogen, slow thaw at 4° C., cycle. Determination of protein concentration: total protein concentration was determined using BCA assay (BCA Protein Assay Reagent, bicinchoninic acid). […]
One variable is analyzed in presence and in absence of infliximab: Compare Individual Macromolecular Volume (INV), that is defined as the total macromolecular spectral change from −37° C. to 37° C., due to the macromolecular conformational changes in absence and presence of a drug, expressed as change in absorbance as a function of wavelength and temperature. […]
Results are analyzed based on their spectral fingerprints going from −37° C. to 37° C. and compared to identify responders and non-responders patients.

[2] = test system: rat hypothalamus extracts; assay: Dynamic NIR spectroscopy of rat hypothalamus extracts in presence of bithionol; conditions: FIG. 11
Excerpt: Sample buffer constituted the blank.

Row | Molecule | Individual Macromolecular Volume (INV), total macromolecular spectral change from −37° C. to 37° C. [1] | effect on protein assemblies / protein conformation (water molecules spectra in NIR wavelength) ([2]; 1 μM test molecule, extract 10^−6 mg/ml, −37° C. to 37° C.) | reversibility of induced conformation changes ([2]; 1 μM, visible in low temperature (most at −37° C.))
1 | infliximab | increases unanimously |  | 
2 | Oc1c(Cl)cc(Cl)cc1Sc1cc(Cl)cc(Cl)c1O [bithionol] |  | disturbs the protein assemblies | reversible as the temperature rises
